Assay: Rest activity of natamycin over time in water based polymer dispersion mixtures (HPLC)
Assay type: physicochemical
Text: This example describes a method to prepare a formulation suitable for use as a food coating and which was developed to test the stability of natamycin over time in relation to the added base polymers.
The mixtures were made with an electric top stirrer, type RW 20 DZM, from Janke & Kunkel equipped with a rushton stirrer.
The mixtures were made by adding 500 gram Mowilith DM2KL, 1000 gram of the latex polymer, to be tested together with 4 gram Delvocid® and a protective additive.
The total weight was made up to 2000 gram with tap water.
This crude mixture was mixed for 5 minutes to obtain a homogeneous mixture and was then adjusted to pH 4-7 with ammonia.
The mixture was stored at 18° C. in a closed pot in the dark.
The prepared mixtures were measured over time for the amount of active natamycin using the test described in Example 2.
This Example describes the method that was used to analyze the amount of active natamycin in a water based mixture of several components.
The method was a HPLC analysis based on the International Dairy Federation (Provisional ADF Standard 140, 1987) with a Lichrosorb RP 8 column. Detection was by UV at 303 nm with a range of 0.1-4 mg/L with an injection volume of 20 μl.
Sample preparation was carried out by weighing 2 g prepared formulation with an accuracy of 1 mg in a measuring flask. 4 ml demineralized water (demiwater) was added and the mixture was stirred for […] a homogeneous suspension.
Subsequently 80 ml methanol was added and the mixture was stirred for 10 minutes. After ultrasonic treatment the solution was filled up to 100 ml with demiwater and the diluted and/or filtered (0.2 μm) before injecting.
The amount of active natamycin as ppm was calculated against a series of standards.
To test the stability of natamycin in combination with water based polymer dispersions mixtures, mixtures were made according to Example 1, and the rest activity of natamycin measured according to Example 2. The results are set out in table 1 (rest activity in %).

## C[C@@H]1C/C=C/C=C/C=C/C=C/[C@H](O[C@@H]2O[C@H](C)[C@@H](O)[C@H](N)[C@@H]2O)C[C@@H]2O[C@](O)(C[C@@H](O)C[C@H]3O[C@@H]3/C=C/C(=O)O1)C[C@H](O)[C@H]2C(=O)O [natamycin]
Basepolymer 2, EDTA-disodiumsalt 0 ppm, 0 weeks
  Rest activity of natamycin over time: 100%
Basepolymer 2, EDTA-disodiumsalt 0 ppm, 1 week
  Rest activity of natamycin over time: 70%
Basepolymer 2, EDTA-disodiumsalt 0 ppm, 3 weeks
  Rest activity of natamycin over time: 22%
Basepolymer 2, EDTA-disodiumsalt 0 ppm, 5 weeks
  Rest activity of natamycin over time: 5%
Basepolymer 2, EDTA-disodiumsalt 0 ppm, 7 weeks
  Rest activity of natamycin over time: 2%
Basepolymer 2, EDTA-disodiumsalt 100 ppm, 0 weeks
  Rest activity of natamycin over time: 100%
Basepolymer 2, EDTA-disodiumsalt 100 ppm, 1 week
  Rest activity of natamycin over time: 99%
Basepolymer 2, EDTA-disodiumsalt 100 ppm, 3 weeks
  Rest activity of natamycin over time: 98%
Basepolymer 2, EDTA-disodiumsalt 100 ppm, 5 weeks
  Rest activity of natamycin over time: 88%
Basepolymer 2, EDTA-disodiumsalt 100 ppm, 7 weeks
  Rest activity of natamycin over time: 82%
Basepolymer 2, EDTA-disodiumsalt 250 ppm, 0 weeks
  Rest activity of natamycin over time: 100%
Basepolymer 2, EDTA-disodiumsalt 250 ppm, 1 week
  Rest activity of natamycin over time: 97%
Basepolymer 2, EDTA-disodiumsalt 250 ppm, 3 weeks
  Rest activity of natamycin over time: 95%
Basepolymer 2, EDTA-disodiumsalt 250 ppm, 5 weeks
  Rest activity of natamycin over time: 88%
Basepolymer 2, EDTA-disodiumsalt 250 ppm, 7 weeks
  Rest activity of natamycin over time: 85%
Basepolymer 2, EDTA-disodiumsalt 500 ppm, 0 weeks
  Rest activity of natamycin over time: 100%
Basepolymer 2, EDTA-disodiumsalt 500 ppm, 1 week
  Rest activity of natamycin over time: 95%
Basepolymer 2, EDTA-disodiumsalt 500 ppm, 3 weeks
  Rest activity of natamycin over time: 92%
Basepolymer 2, EDTA-disodiumsalt 500 ppm, 5 weeks
  Rest activity of natamycin over time: 86%
Basepolymer 2, EDTA-disodiumsalt 500 ppm, 7 weeks
  Rest activity of natamycin over time: 80%
Basepolymer 2, EDTA-disodiumsalt 750 ppm, 0 weeks
  Rest activity of natamycin over time: 100%
Basepolymer 2, EDTA-disodiumsalt 750 ppm, 1 week
  Rest activity of natamycin over time: 96%
Basepolymer 2, EDTA-disodiumsalt 750 ppm, 3 weeks
  Rest activity of natamycin over time: 95%
Basepolymer 2, EDTA-disodiumsalt 750 ppm, 5 weeks
  Rest activity of natamycin over time: 88%
Basepolymer 2, EDTA-disodiumsalt 750 ppm, 7 weeks
  Rest activity of natamycin over time: 82%
Basepolymer 2, EDTA-disodiumsalt 1000 ppm, 0 weeks
  Rest activity of natamycin over time: 100%
Basepolymer 2, EDTA-disodiumsalt 1000 ppm, 1 week
  Rest activity of natamycin over time: 96%
Basepolymer 2, EDTA-disodiumsalt 1000 ppm, 3 weeks
  Rest activity of natamycin over time: 95%
Basepolymer 2, EDTA-disodiumsalt 1000 ppm, 5 weeks
  Rest activity of natamycin over time: 88%
Basepolymer 2, EDTA-disodiumsalt 1000 ppm, 7 weeks
  Rest activity of natamycin over time: 81%
Basepolymer 2, EDTA-disodiumsalt 2000 ppm, 0 weeks
  Rest activity of natamycin over time: 100%
Basepolymer 2, EDTA-disodiumsalt 2000 ppm, 1 week
  Rest activity of natamycin over time: 97%
Basepolymer 2, EDTA-disodiumsalt 2000 ppm, 3 weeks
  Rest activity of natamycin over time: 94%
Basepolymer 2, EDTA-disodiumsalt 2000 ppm, 5 weeks
  Rest activity of natamycin over time: 88%
Basepolymer 2, EDTA-disodiumsalt 2000 ppm, 7 weeks
  Rest activity of natamycin over time: 79%
Basepolymer 2, EDTA-disodiumsalt 5000 ppm, 0 weeks
  Rest activity of natamycin over time: 100%
Basepolymer 2, EDTA-disodiumsalt 5000 ppm, 1 week
  Rest activity of natamycin over time: 97%
Basepolymer 2, EDTA-disodiumsalt 5000 ppm, 3 weeks
  Rest activity of natamycin over time: 95%
Basepolymer 2, EDTA-disodiumsalt 5000 ppm, 5 weeks
  Rest activity of natamycin over time: 88%
Basepolymer 2, EDTA-disodiumsalt 5000 ppm, 7 weeks
  Rest activity of natamycin over time: 81%
Basepolymer 3, With BHA 1000 ppm, 1 week
  Rest activity of natamycin over time: 96%
Basepolymer 3, With BHA 1000 ppm, 2 weeks
  Rest activity of natamycin over time: 92%
Basepolymer 3, With BHA 1000 ppm, 4 weeks
  Rest activity of natamycin over time: 84%
Basepolymer 3, With tocopherol 1000 ppm, 1 week
  Rest activity of natamycin over time: 92%
Basepolymer 3, With tocopherol 1000 ppm, 2 weeks
  Rest activity of natamycin over time: 83%
Basepolymer 3, With tocopherol 1000 ppm, 4 weeks
  Rest activity of natamycin over time: 76%
Basepolymer 3, Without additive, 1 week
  Rest activity of natamycin over time: 88%
Basepolymer 3, Without additive, 2 weeks
  Rest activity of natamycin over time: 70%
Basepolymer 3, Without additive, 4 weeks
  Rest activity of natamycin over time: 50%

Source: patent US20030055010A1, “Preserving active fungicide in an aqueous solution” (priority 1999, published 2003)
